In ChEMBL document CHEMBL4715770, “Inhibition of Low Molecular Weight Protein Tyrosine Phosphatase by an Induced-Fit Mechanism” (J Med Chem, 2016):

Key:
[1] = target: T1, Tyrosine-protein phosphatase non-receptor type 22 (Homo sapiens, UniProt Q9Y2R2); assay: Inhibition of His-tagged LYP (unknown origin) expressed in Escherichia coli BL21 cells using para-nitrophenyl phosphate as substrate incubated for 5 to 10 mins by microplate reader based spectrophotometric analysis
T1 sequence (Q9Y2R2 whole entry): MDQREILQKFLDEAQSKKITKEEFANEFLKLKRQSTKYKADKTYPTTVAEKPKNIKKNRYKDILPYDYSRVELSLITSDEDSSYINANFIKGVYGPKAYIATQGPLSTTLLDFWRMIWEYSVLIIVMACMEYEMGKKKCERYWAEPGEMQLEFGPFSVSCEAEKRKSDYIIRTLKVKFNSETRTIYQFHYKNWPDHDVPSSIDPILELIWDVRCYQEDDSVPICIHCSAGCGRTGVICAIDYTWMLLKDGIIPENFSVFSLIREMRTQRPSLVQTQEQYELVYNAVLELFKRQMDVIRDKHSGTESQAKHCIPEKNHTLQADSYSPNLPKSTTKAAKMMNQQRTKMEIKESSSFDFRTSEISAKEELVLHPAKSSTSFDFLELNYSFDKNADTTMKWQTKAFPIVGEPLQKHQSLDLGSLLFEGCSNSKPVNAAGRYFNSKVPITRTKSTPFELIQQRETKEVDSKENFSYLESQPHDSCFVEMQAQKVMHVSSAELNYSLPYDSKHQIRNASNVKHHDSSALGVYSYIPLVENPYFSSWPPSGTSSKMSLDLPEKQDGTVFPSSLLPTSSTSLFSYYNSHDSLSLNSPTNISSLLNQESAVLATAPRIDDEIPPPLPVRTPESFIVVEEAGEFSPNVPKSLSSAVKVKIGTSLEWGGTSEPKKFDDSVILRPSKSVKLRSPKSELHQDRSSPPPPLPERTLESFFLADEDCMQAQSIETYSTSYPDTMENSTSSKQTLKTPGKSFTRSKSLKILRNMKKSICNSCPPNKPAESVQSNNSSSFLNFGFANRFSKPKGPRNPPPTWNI

[2] = target: T2, Tyrosine-protein phosphatase non-receptor type 2 (Homo sapiens, UniProt P17706); assay: Inhibition of His-tagged TC-PTP (unknown origin) expressed in Escherichia coli BL21 cells using para-nitrophenyl phosphate as substrate incubated for 5 to 10 mins by microplate reader based spectrophotometric analysis
T2 sequence (P17706 whole entry): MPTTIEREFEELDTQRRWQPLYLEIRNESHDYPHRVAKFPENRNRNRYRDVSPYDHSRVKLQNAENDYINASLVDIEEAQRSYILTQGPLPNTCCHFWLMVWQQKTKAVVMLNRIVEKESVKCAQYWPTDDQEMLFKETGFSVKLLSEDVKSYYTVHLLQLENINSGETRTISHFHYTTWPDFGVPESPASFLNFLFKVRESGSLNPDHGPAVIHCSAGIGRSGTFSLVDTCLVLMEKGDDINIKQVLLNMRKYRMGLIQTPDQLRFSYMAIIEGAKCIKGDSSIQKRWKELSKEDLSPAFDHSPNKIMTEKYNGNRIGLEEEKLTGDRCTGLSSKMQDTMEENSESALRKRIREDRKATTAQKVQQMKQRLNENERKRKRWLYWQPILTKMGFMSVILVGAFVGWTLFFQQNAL

[3] = target: Tyrosine-protein phosphatase non-receptor type 13 (Homo sapiens, UniProt Q12923); assay: Inhibition of His-tagged FAP1 (unknown origin) expressed in Escherichia coli BL21 cells using para-nitrophenyl phosphate as substrate incubated for 5 to 10 mins by microplate reader based spectrophotometric analysis
[4] = target: T3, Tyrosine-protein phosphatase non-receptor type 11 (Homo sapiens, UniProt Q06124); assay: Inhibition of His-tagged SHP2 (unknown origin) expressed in Escherichia coli BL21 cells using para-nitrophenyl phosphate as substrate incubated for 5 to 10 mins by microplate reader based spectrophotometric analysis
T3 sequence (Q06124 whole entry): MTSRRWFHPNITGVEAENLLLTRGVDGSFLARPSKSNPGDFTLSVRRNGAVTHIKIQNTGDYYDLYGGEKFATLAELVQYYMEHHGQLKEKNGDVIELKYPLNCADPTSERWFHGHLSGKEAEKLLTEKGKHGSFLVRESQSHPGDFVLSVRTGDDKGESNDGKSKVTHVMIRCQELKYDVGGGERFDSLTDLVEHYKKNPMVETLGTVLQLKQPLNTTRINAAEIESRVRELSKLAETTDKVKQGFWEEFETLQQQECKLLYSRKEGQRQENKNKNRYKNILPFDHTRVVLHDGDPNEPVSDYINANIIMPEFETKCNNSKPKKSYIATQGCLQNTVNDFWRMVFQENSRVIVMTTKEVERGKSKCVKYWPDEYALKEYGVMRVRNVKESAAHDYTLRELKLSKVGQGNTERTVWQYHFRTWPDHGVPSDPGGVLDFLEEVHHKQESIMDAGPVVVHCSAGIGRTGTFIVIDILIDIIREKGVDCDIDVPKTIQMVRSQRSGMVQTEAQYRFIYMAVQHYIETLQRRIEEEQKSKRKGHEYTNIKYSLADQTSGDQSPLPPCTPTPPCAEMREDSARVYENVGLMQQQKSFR

[5] = target: T4, RNA polymerase II subunit A C-terminal domain phosphatase SSU72 (Homo sapiens, UniProt Q9NP77); assay: Inhibition of His-tagged SSu72 (unknown origin) expressed in Escherichia coli BL21 cells using para-nitrophenyl phosphate as substrate incubated for 5 to 10 mins by microplate reader based spectrophotometric analysis
T4 sequence (Q9NP77 whole entry): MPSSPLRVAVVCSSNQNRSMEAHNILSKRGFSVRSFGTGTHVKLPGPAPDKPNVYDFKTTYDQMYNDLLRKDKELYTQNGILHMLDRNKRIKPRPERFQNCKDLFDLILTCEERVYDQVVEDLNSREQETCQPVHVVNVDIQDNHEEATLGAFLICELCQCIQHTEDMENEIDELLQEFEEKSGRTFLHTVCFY

[6] = target: Receptor-type tyrosine-protein phosphatase beta (Homo sapiens, UniProt P23467); assay: Inhibition of His-tagged PTPbeta (unknown origin) expressed in Escherichia coli BL21 cells using para-nitrophenyl phosphate as substrate incubated for 5 to 10 mins by microplate reader based spectrophotometric analysis
[7] = target: T5, Tyrosine-protein phosphatase non-receptor type 7 (Homo sapiens, UniProt P35236); assay: Inhibition of His-tagged HePTP (unknown origin) expressed in Escherichia coli BL21 cells using para-nitrophenyl phosphate as substrate incubated for 5 to 10 mins by microplate reader based spectrophotometric analysis
T5 sequence (P35236 whole entry): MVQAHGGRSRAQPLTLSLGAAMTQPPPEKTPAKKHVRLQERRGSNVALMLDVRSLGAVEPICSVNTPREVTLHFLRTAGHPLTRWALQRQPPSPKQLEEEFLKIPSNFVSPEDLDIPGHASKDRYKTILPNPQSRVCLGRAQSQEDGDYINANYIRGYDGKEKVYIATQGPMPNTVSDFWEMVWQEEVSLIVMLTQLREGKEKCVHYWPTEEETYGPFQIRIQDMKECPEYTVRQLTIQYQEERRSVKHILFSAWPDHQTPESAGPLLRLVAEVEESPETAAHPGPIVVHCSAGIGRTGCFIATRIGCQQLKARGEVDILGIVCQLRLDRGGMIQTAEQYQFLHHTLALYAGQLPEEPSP

Receptor-type tyrosine-protein phosphatase beta, sequence (P23467 whole entry): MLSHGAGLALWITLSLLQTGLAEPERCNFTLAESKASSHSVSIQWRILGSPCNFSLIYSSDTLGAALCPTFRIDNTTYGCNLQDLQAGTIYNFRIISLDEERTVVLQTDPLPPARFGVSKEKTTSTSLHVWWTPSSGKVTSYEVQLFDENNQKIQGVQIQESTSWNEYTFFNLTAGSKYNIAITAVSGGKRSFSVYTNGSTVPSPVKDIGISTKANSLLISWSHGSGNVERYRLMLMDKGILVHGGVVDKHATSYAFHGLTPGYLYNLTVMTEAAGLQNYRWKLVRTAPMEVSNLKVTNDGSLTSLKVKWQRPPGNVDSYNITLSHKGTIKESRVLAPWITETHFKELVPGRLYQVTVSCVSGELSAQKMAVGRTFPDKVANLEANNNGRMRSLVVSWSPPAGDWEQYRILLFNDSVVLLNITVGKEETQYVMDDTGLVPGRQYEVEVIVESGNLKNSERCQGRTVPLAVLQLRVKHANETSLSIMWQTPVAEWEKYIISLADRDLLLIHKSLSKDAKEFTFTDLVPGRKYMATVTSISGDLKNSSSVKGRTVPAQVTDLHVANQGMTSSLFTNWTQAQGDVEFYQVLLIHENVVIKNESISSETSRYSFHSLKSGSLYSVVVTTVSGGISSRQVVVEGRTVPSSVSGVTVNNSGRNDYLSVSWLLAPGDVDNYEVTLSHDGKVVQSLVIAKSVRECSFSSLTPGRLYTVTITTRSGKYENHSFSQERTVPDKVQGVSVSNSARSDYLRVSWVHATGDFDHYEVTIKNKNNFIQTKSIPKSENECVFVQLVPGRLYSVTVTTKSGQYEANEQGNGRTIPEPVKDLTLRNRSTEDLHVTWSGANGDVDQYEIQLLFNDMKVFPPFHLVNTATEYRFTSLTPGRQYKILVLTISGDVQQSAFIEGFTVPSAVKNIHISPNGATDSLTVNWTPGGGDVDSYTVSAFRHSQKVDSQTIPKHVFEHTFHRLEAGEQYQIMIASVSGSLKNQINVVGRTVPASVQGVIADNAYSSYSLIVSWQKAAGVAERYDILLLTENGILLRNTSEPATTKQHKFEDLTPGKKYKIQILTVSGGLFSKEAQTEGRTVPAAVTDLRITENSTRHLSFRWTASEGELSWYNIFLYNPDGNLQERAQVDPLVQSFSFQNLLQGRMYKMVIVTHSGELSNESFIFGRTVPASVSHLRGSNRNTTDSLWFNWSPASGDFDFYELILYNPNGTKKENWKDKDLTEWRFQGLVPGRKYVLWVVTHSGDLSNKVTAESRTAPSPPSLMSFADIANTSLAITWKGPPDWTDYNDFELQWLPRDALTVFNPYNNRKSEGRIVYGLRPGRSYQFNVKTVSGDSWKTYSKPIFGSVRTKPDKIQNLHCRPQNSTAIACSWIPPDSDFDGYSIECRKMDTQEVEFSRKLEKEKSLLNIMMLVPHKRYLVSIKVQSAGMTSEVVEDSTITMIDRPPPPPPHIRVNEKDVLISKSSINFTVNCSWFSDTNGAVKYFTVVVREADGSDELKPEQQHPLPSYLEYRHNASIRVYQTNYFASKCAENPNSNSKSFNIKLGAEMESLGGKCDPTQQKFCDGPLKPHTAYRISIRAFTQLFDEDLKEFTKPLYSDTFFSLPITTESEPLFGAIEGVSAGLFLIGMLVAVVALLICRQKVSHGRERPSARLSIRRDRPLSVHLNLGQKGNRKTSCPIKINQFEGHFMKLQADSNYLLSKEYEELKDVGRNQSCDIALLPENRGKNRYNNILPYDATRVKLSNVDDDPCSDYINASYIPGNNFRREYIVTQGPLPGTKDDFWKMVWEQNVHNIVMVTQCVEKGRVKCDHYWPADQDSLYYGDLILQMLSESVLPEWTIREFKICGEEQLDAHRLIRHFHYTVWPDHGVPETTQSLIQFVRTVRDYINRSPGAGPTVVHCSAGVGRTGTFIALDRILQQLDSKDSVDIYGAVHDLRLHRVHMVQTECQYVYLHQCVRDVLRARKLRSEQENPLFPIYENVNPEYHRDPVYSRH
Tyrosine-protein phosphatase non-receptor type 13, sequence (Q12923 whole entry): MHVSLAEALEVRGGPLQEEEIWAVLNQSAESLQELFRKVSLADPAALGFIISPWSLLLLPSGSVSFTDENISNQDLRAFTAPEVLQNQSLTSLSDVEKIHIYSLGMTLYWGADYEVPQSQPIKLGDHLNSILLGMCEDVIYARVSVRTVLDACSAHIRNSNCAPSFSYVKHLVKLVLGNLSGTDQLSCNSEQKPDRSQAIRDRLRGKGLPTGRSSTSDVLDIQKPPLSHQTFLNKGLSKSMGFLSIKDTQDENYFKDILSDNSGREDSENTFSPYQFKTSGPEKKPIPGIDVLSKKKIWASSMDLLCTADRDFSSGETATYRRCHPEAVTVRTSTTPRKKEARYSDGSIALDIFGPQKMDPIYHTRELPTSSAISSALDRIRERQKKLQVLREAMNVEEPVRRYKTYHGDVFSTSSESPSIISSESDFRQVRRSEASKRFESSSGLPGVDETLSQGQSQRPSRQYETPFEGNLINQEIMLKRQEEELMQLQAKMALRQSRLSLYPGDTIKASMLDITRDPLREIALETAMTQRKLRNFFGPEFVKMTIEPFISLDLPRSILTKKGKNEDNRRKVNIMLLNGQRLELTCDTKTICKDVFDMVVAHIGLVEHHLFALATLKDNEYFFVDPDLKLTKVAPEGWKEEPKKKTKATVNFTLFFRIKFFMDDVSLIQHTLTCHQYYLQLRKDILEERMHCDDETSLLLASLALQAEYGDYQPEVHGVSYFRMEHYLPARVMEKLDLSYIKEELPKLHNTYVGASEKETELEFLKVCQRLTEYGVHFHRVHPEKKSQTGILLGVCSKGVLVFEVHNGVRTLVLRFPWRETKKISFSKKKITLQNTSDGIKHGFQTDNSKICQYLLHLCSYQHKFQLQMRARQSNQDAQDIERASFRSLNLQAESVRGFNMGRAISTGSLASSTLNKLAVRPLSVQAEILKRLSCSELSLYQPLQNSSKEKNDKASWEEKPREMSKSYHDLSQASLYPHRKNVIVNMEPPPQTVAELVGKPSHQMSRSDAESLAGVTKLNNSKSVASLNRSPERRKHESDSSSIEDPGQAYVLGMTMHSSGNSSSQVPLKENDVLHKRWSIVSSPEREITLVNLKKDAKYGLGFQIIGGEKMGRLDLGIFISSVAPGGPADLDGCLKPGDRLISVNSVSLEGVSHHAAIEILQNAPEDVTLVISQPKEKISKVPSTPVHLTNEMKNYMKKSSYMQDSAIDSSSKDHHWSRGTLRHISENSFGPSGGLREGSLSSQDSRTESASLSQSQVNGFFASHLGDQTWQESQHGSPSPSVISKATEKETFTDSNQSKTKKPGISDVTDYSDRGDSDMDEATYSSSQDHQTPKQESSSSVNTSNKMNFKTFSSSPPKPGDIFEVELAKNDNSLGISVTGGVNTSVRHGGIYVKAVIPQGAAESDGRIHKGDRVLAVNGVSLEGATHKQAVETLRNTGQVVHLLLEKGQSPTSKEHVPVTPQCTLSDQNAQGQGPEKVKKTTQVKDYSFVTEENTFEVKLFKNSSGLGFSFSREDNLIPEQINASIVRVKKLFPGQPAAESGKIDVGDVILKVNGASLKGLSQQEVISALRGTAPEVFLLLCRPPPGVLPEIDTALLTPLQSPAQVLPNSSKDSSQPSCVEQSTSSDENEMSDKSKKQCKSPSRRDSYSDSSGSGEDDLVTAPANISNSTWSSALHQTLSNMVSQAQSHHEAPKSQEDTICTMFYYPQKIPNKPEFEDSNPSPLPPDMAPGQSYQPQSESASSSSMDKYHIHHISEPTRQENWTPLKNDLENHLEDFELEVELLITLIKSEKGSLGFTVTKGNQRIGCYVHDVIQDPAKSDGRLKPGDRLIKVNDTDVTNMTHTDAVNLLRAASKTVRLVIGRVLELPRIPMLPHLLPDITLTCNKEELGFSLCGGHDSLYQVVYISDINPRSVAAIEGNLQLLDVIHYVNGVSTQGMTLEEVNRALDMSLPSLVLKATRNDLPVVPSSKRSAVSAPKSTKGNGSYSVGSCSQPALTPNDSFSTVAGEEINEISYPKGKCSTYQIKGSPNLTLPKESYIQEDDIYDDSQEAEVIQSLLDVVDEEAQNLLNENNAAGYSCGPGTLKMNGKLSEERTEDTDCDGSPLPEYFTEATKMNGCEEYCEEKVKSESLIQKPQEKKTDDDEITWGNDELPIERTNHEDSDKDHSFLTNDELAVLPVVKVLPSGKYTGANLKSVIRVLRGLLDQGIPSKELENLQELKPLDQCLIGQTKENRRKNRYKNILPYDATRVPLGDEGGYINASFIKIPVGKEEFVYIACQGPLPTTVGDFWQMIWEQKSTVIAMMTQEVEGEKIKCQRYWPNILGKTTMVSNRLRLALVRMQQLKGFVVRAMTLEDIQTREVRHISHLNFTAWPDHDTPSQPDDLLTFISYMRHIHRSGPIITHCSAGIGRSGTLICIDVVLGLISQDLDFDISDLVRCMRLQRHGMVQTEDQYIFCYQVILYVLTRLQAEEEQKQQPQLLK

Structure (SMILES)	IC50 [1] [µM]	IC50 [2] [µM]	IC50 [3] [µM]	IC50 [4] [µM]	IC50 [5] [µM]	IC50 [6] [µM]	IC50 [7] [µM]
O=C(Nc1nc2ccc([N+](=O)[O-])cc2s1)C(c1ccccc1)S(=O)(=O)O (stereo unspecified)	> 100	> 100	> 100	> 100	> 100	> 100	> 100
Cc1c(Br)cc(NC(=O)C(c2ccccc2)S(=O)(=O)O)cc1Br (stereo unspecified)	> 200	> 200	> 200	> 200	> 200	> 200	> 200
O=C(Nc1ccc(-n2ccnc2)cc1)C(c1ccccc1)S(=O)(=O)O (stereo unspecified)	> 100	> 100	> 100	> 100	> 100	> 100	> 100
O=C(Nc1cc(C(F)(F)F)cc(C(F)(F)F)c1)C(c1ccccc1)S(=O)(=O)O (stereo unspecified)	> 200	> 200	76	> 200	83	> 200	94
O=C(Nc1ccc(OCc2ccccc2)c(Cl)c1)C(c1ccccc1)S(=O)(=O)O (stereo unspecified)	–	> 200	–	–	–	> 200	> 200
